Laboratory results: PubChem BioAssay (NCI)
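Dose response: 5 concentrations. Exposure: 48 h. Format: 96-well plates. Endpoint: linear interpolation; highest concentration if not reached. The concentration for 50% growth inhibition is given as GI50. TGI denotes the concentration required for complete inhibition of growth.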 Where a SMILES comes first, the peptide text is derived from it. The star is where a group is joined. Palmitoyl = CCCCCCCCCCCCCCCC(=O)*

Legend:
Assay in all cases: NCI tumour cell line growth inhibition, 48 h
SK-MEL-2 melanoma = tested on: SK-MEL-2 melanoma
SW-620 colon = tested on: SW-620 colon
M14 melanoma = tested on: M14 melanoma
786-0 renal = tested on: 786-0 renal
BT-549 breast = tested on: BT-549 breast
UACC-257 melanoma = tested on: UACC-257 melanoma
MALME-3M melanoma = tested on: MALME-3M melanoma
LOX IMVI melanoma = tested on: LOX IMVI melanoma
HCT-15 colon = tested on: HCT-15 colon
DU-145 prostate = tested on: DU-145 prostate
HL-60(TB) leukemia = tested on: HL-60(TB) leukemia

| SMILES | TGI (SK-MEL-2 melanoma) [µM] | TGI (SW-620 colon) [µM] | TGI (M14 melanoma) [µM] | TGI (786-0 renal) [µM] | TGI (BT-549 breast) [µM] | TGI (UACC-257 melanoma) [µM] | TGI (MALME-3M melanoma) [µM] | TGI (LOX IMVI melanoma) [µM] | TGI (HCT-15 colon) [µM] | TGI (DU-145 prostate) [µM] | GI50 (SK-MEL-2 melanoma) [µM] | GI50 (SW-620 colon) [µM] | GI50 (M14 melanoma) [µM] | GI50 (BT-549 breast) [µM] | GI50 (UACC-257 melanoma) [µM] | GI50 (MALME-3M melanoma) [µM] | GI50 (DU-145 prostate) [µM] | GI50 (HL-60(TB) leukemia) [µM] | TGI (HL-60(TB) leukemia) [µM] |
| --- | --- | --- | --- | --- | --- | --- | --- | --- | --- | --- | --- | --- | --- | --- | --- | --- | --- | --- | --- |
| CSc1nc2c(c(N(C)C)n1)C(O)n1c(nc3ccccc31)S2 (stereo unspecified) | > 100 | > 100 | > 100 | > 100 | > 100 | > 100 | > 100 | 75.5 | > 100 | > 100 | – | – | – | – | – | – | – | – | – |
| CCCCCCCCCCCCCCCC(=O)N1CCCC1C(=O)NCC(=O)NC(Cc1ccccc1)C(=O)N1CCCC1C(=O)NC(CO)C(=O)NC(Cc1ccc(O)cc1)C(=O)NC(CCCCN)C(=O)NC(CC(C)C)C(=O)NC(CCCN=C(N)N)C(=O)N1CCCC1C(=O)NCC(N)=O (stereo unspecified) (Palmitoyl-PGFPSYKLRPG-NH2; configuration not given here) | > 100 | 73.9 | 27.3 | – | 43.2 | 31 | 5.73 | – | – | 39.9 | 46.2 | 25.5 | 14.2 | 20.8 | 14.6 | 0.45 | 18.3 | 18.7 | 52.9 |
| O=C1c2cccc3cccc(c23)C(=O)N1CCCNCCCCNCCCNCCCN1C(=O)c2cccc3cccc(c23)C1=O | 2.75 | 4.35 | 3.64 | 1.36 | 3.3 | 3.06 | 1.25 | – | 28.1 | 1.53 | – | – | – | – | – | – | – | – | 1.54 |
| CC(C)(CO)CNc1nc(N)nc(Cl)c1/C=N/O | > 100 | > 100 | – | > 100 | > 100 | > 100 | > 100 | > 100 | > 100 | > 100 | – | – | – | – | – | – | – | – | > 100 |
| O=c1onc2n1-c1cc(Cl)ccc1C(=S)N1CSCC21 (stereo unspecified) | > 100 | > 100 | > 100 | > 100 | > 100 | > 100 | > 100 | > 100 | > 100 | > 100 | – | – | – | – | – | – | – | – | – |
| Cc1cc(C)nc(NC(=S)Nc2ccc([N+](=O)[O-])cc2)c1 | > 100 | > 100 | – | > 100 | > 100 | > 100 | – | > 100 | > 100 | > 100 | – | – | – | – | – | – | – | – | > 100 |
| Cc1ccnc(NC(=S)Nc2ccc([N+](=O)[O-])cc2)c1 | > 100 | > 100 | > 100 | > 100 | > 100 | > 100 | – | > 100 | > 100 | > 100 | – | – | – | – | – | – | – | – | > 100 |
| C=C1C(=O)[C@@]23CC[C@@H]4[C@@]5(C)CCC[C@@]4(OC5=O)[C@@]2(C)CC[C@@H]1C3 | 8.12 | – | – | 2.55 | 3.24 | 4.06 | 5.31 | 2.96 | 2.44 | 12.2 | – | – | – | – | – | – | – | – | > 100 |
| Nc1ncc2c(n1)-c1ccccc1OC2N1CCCC1 (stereo unspecified) | > 100 | > 100 | > 100 | > 100 | – | > 100 | > 100 | > 100 | > 100 | > 100 | – | – | – | – | – | – | – | – | 51.7 |
| CC(C(=O)COCc1ccccc1)P1(=O)OC(C)(C)CN1C(C)(C)C (stereo unspecified) | – | > 100 | > 100 | > 100 | – | > 100 | – | > 100 | > 100 | > 100 | – | – | – | – | – | – | – | – | > 100 |
| CN1CCN(Cc2cc3c(nn2)-c2ccccc2C3=O)CC1 | > 100 | > 100 | > 100 | > 100 | > 100 | 37.1 | 39.2 | – | > 100 | > 100 | – | – | – | – | – | – | – | – | 72.5 |
| O=C(NN1C(=O)CS(=O)(=O)C1c1ccc(C(F)(F)F)cc1)c1ccncc1 (stereo unspecified) | > 100 | > 100 | > 100 | – | – | > 100 | > 100 | > 100 | > 100 | – | – | – | – | – | – | – | – | – | > 100 |
| COc1cccc2c1OC(c1cccc3ccccc13)C([N+](=O)[O-])=C2 (stereo unspecified) | – | – | 2.77 | 3.95 | 2.74 | 4.42 | 4.08 | – | 3.8 | 8.9 | – | – | – | – | – | – | – | – | > 100 |
| C=C(CN(C)C)C(=O)c1ccc(C(=O)C(=C)CN(C)C)cc1 | > 100 | > 100 | > 100 | > 100 | – | > 100 | > 100 | > 100 | > 100 | > 100 | – | – | – | – | – | – | – | – | > 100 |
| Cc1nc2ccccc2c(-n2cccn2)c1CCn1cccn1 | > 100 | > 100 | > 100 | > 100 | – | > 100 | > 100 | > 100 | > 100 | > 100 | – | – | – | – | – | – | – | – | > 100 |
| [N-]=[N+]=CC(=O)OC(CCl)CCl | > 100 | > 100 | – | > 100 | > 100 | > 100 | > 100 | > 100 | > 100 | > 100 | – | – | – | – | – | – | – | – | > 100 |
| O=C1N(Cc2ccccc2)C2CSCC2N1Cc1ccccc1 (stereo unspecified) | 46.4 | > 100 | 33.7 | – | 53.5 | 69.3 | 46.3 | 93.1 | – | > 100 | – | – | – | – | – | – | – | – | – |
| O=C1C(=Nc2ccc(Nc3ccccc3)cc2)Oc2ccccc21 | 14.4 | 4.67 | 5.38 | 3.37 | – | 4.56 | 9.71 | 4.4 | 13.2 | 21 | – | – | – | – | – | – | – | – | 4.9 |
| C=CC1(C)CC(=O)C2(O)C(C)(O1)C(OC(C)=O)C(O)C1C(C)(C)CCC(O)C12C (stereo unspecified) | > 150 | > 150 | – | – | – | > 150 | > 150 | > 150 | > 150 | – | – | – | – | – | – | – | – | – | > 137 |
| CNc1[nH]c(=S)nc2sc3c(c12)CCCC3 | > 75 | > 75 | – | > 75 | > 75 | > 75 | > 75 | > 75 | > 75 | > 75 | – | – | – | – | – | – | – | – | > 75 |
| O=C(OCC(Cl)(Cl)Cl)N1CC[C@H](C2CCCCC2)C1 | 30.4 | – | 39.8 | 33.1 | 53.9 | 38.7 | – | 41.1 | 34.8 | 31.8 | – | – | – | – | – | – | – | – | – |
